Reference: patent US20050027003A1, “Methods of therapeutic treatment using retinoids with reduced side effects” (Allergan, Inc., priority 2003, published 2005)

Key:
patients = experiment: Example 3: two placebo-controlled 24-week safety studies plus dose-response evaluations of oral tazarotene; format: in vivo, human; settings: for incidence of patients discontinuing due to adverse effects: placebo 3%
Procedure: Two multicenter, double-blind, randomized, placebo-controlled 24-week studies of identical design are conducted to evaluate the safety of oral tazarotene. In addition, 16- to 24-week dose-response evaluations are performed.
In the two safety trials, the incidence of adverse side effects with a 4.5 mg dose administered orally once daily is compared to the incidence of the same side effects with a placebo. […] The majority of these were mild in severity and typical of adverse effects associated with oral retinoids.

[1] = tested on: patients having nodulocystic acne; experiment: Example 5: two placebo-controlled dose-ranging safety studies in nodulocystic acne; format: in vivo, human; settings: for depression, patients: placebo 2%; for emotional lability, patients: placebo 4%
Procedure: Two placebo-controlled dose-ranging studies are conducted to evaluate the safety of oral tazarotene in patients having nodulocystic acne. In the first study, patients receive orally administered tazarotene at daily doses of 0.4 mg to 2.8 mg in 96 (71+25) patients (12 weeks treatment plus 12 weeks post-treatment). In the second study, daily doses of 0.75 mg to 6 mg tazarotene are administered to 181 patients (24 weeks treatment plus 12 weeks post-treatment).

[2] = tested on: patients with severe nodulocystic acne; experiment: Example 10: placebo-controlled parallel-group study of oral tazarotene in severe nodulocystic acne; format: in vivo, human; settings: for patients withdrawing due to adverse events: placebo 0%
From the text: A multicenter, double-blind, randomized, placebo-controlled parallel-group study is undertaken to determine the efficacy of orally administered tazarotene in treating severe nodulocystic acne.
In addition, washout periods for other medications for this study are: 1 week for vitamin A supplements >5000 IU; 2 weeks for topical anti-acne medications (e.g., retinoids, azelaic acid, benzoyl peroxide); 2 weeks for topical or systemic antibiotic therapy that may alter the course of acne; and 6 months for systemic retinoids.
Patients are randomized to receive placebo or oral tazarotene (0.75, 1.5, 3, or 6 mg), in a 1:1:1:1:1 ratio once daily for 24 weeks. After this, the patients are followed without treatment for an additional 12 weeks. Patients discontinuing from the treatment period due to adverse effects or lack of efficacy are eligible for entry into the post-treatment phase.
In the study, overall acne severity is rated as: none (no inflammatory acne lesions); mild (few to several papules or pustules, no nodulocystic lesions); moderate (several to many papules or pustules, few to several nodulocystic lesions); and severe (numerous or extensive papules or pustules, many, for example, at least about 5 or at least about 10, nodulocystic lesions).
Treatment success is defined as at least moderate (about 50%) improvement on the following 7-point global response scale: • 0=completely cleared • 1=almost cleared (about 90% improvement) • 2=marked response (about 75% improvement) • 3=moderate response (about 50% improvement) • 4=slight response (about 25% improvement) • 5=condition unchanged • 6=condition worsened
In this study, facial nodulocystic lesion count includes lesions greater than 5 mm in size. Facial papular/pustular lesion count includes lesions less than or equal to 5 mm in size. Facial non-inflammatory lesion count includes open and closed comedones.
Sebum output is assessed every 4 weeks at selected centers using the Sebutape® patches, sold by Cuderm Corporation. Urinalysis, chemistry, and hematology values are monitored. Bone formation and resorption assessments (serum bone alkaline phosphatase and serum amino terminal telopeptides, respectively) at selected centers are monitored.
Bone mineral density of spine and proximal femur at selected centers is monitored. Ligament calcification or osteophyte formation (lateral X-ray of the cervical and thoracic spine, and ankle calcaneous) is monitored. Epiphyseal growth plate closure (internal oblique X-ray of the ankle in patients less than or equal to 21 years old) is monitored.

patients with psoriasis = experiment: Example 2: Phase 3 studies of oral tazarotene for psoriasis, adverse events (Table 1); format: in vivo, human; settings: Taz 4.5 mg
Procedure: A series of Phase 3 studies are conducted on orally administered tazarotene for the treatment of psoriasis. Adverse events (side effects) are monitored. In addition, published data for acitretin's side effects are also considered.

AP1 = AP1 antagonism
[3] = 0.75 to 6 mg once daily, 24 weeks
[4] = Study 3, treated with Tazarotene for 3 months (N = 220)
[5] = Study 3, treated with Tazarotene for 6 months (N = 92)
[6] = combined data from Studies 1 and 2 (N = 348)

CCOC(=O)c1ccc(C#Cc2ccc3c(c2)C(C)(C)CCS3)nc1 [tazarotene]
incidence of patients discontinuing due to adverse effects (patients; 4.5 mg (n=348)): 3%
incidence of hypertriglyceridemia, hypercholesterolemia, abnormal liver function tests, increased alanine aminotransferase, increased aspartate aminotransferase, desquamation, eye dryness, alopecia (patients; 4.5 mg orally once daily vs placebo): essentially the same incidence
incidence of patients discontinuing due to adverse effects (patients; 6.3 mg (n=16)): 13%
incidence of patients discontinuing due to adverse effects (patients; 0.4 to 1.1 mg (n=105)): approximately 2%
incidence of patients discontinuing due to adverse effects (patients; 2.1 to 2.8 mg (n=21)): 10%
incidence of patients discontinuing due to adverse effects (patients; (n=14)): 0%
changes in urinalysis, chemistry, or hematology measures (incl. liver function tests, triglycerides, total cholesterol, HDL cholesterol) ([1]; 0.4 mg to 6 mg daily): no consistent dose-related clinically significant changes
ligament calcification, osteophyte formation, changes in serum bone alkaline phosphatase, serum amino terminal telopeptides, bone density ([1]; 0.4 mg to 6 mg daily): not associated with any clinically significant
depression, patients ([1]; 3 mg group (2 mild, 1 severe)): 8%
emotional lability, patients ([1]; 3 mg group): 3%
depression, patients ([1]; 6 mg group): none
emotional lability, patients ([1]; 6 mg group): 14%
dry skin, severe ([1]; all groups): No patient
patients withdrawing due to adverse events ([2]; 0.75 mg group (2/35)): 6%
patients withdrawing due to adverse events ([2]; 1.5 mg group (0/37)): 0%
incidence of treatment success (≧50% global improvement) vs placebo ([2]; 3 mg and 6 mg, week 24 and throughout post-treatment phase, p≦0.05): significantly higher incidence
patients withdrawing due to adverse events ([2]; 3 mg group (2/37)): 5%
patients withdrawing due to adverse events ([2]; 6 mg group (1/36)): 3%
percentage of patients with at least a 90% reduction in facial nodulocystic lesion count vs placebo ([2]; 6 mg group, end of the post-treatment phase): significant superiority over placebo
reduction of overall acne severity ([2]; 6 mg, week 16 until end of post-treatment phase, p≦0.01): significantly more than placebo
bone formation and resorption (serum bone alkaline phosphatase, serum amino terminal telopeptides) [2, 3]: do not appear to be altered
changes in urinalysis, chemistry, or hematology measures (incl. liver function tests, triglycerides, total cholesterol, HDL cholesterol) [2, 3]: None of the treatment groups show any consistent clinically significant changes
reductions in number of facial papules or pustules and facial non-inflammatory acne lesions vs placebo ([2]; from week 8 onward): consistently greater reductions
reductions in number of total facial nodulocystic lesions vs placebo ([2]; from week 8 onward): consistently greater reductions
efficacy in severe nodulocystic acne ([2]; once-daily doses of 1.5, 3, and 6 mg): efficacious
Adverse event: Alopecia (patients with psoriasis; [4]): 1 (0.5) number (%) of patients
Adverse event: Arthralgia (patients with psoriasis; [4]): 28 (12.7) number (%) of patients
Adverse event: Atrophy of skin (patients with psoriasis; [4]): 0 (0.0) number (%) of patients
Adverse event: Back pain (patients with psoriasis; [4]): 7 (3.2) number (%) of patients
Adverse event: Cheilitis (patients with psoriasis; [4]): 149 (67.7) number (%) of patients
Adverse event: Dry Skin (patients with psoriasis; [4]): 47 (21.4) number (%) of patients
Adverse event: Dry mouth/Oral dryness (patients with psoriasis; [4]): 11 (5.0) number (%) of patients
Adverse event: Epistaxis (patients with psoriasis; [4]): 1 (0.5) number (%) of patients
Adverse event: Erythematous rash/Erythema (patients with psoriasis; [4]): 0 (0.0) number (%) of patients
Adverse event: Hyperesthesia (patients with psoriasis; [4]): 0 (0.0) number (%) of patients
Adverse event: Nail Disorder (patients with psoriasis; [4]): 1 (0.5) number (%) of patients
Adverse event: Paresthesia (patients with psoriasis; [4]): 3 (1.4) number (%) of patients
Adverse event: Paronychia/Nail disorder (patients with psoriasis; [4]): 1 (0.5) number (%) of patients
Adverse event: Pruritus (patients with psoriasis; [4]): 11 (5.0) number (%) of patients
Adverse event: Rhinitis (patients with psoriasis; [4]): 0 (0.0) number (%) of patients
Adverse event: Rigors/Chills (patients with psoriasis; [4]): 1 (0.5) number (%) of patients
Adverse event: Skin peeling/Desquamation (patients with psoriasis; [4]): 3 (1.4) number (%) of patients
Adverse event: Sticky skin/Skin disorder (patients with psoriasis; [4]): 0 (0.0) number (%) of patients
Adverse event: Xerophthalmia/Eye disorder (patients with psoriasis; [4]): 3 (1.4) number (%) of patients
Adverse event: Alopecia (patients with psoriasis; [5]): 5 (5.4) number (%) of patients
Adverse event: Arthralgia (patients with psoriasis; [5]): 30 (32.6) number (%) of patients
Adverse event: Atrophy of skin (patients with psoriasis; [5]): 0 (0.0) number (%) of patients
Adverse event: Back pain (patients with psoriasis; [5]): 10 (10.9) number (%) of patients
Adverse event: Cheilitis (patients with psoriasis; [5]): 65 (70.7) number (%) of patients
Adverse event: Dry Skin (patients with psoriasis; [5]): 24 (26.1) number (%) of patients
Adverse event: Dry mouth/Oral dryness (patients with psoriasis; [5]): 2 (2.2) number (%) of patients
Adverse event: Epistaxis (patients with psoriasis; [5]): 0 (0.0) number (%) of patients
Adverse event: Erythematous rash/Erythema (patients with psoriasis; [5]): 0 (0.0) number (%) of patients
Adverse event: Hyperesthesia (patients with psoriasis; [5]): 0 (0.0) number (%) of patients
Adverse event: Nail Disorder (patients with psoriasis; [5]): 1 (1.1) number (%) of patients
Adverse event: Paresthesia (patients with psoriasis; [5]): 1 (1.1) number (%) of patients
Adverse event: Paronychia/Nail disorder (patients with psoriasis; [5]): 1 (1.1) number (%) of patients
Adverse event: Pruritus (patients with psoriasis; [5]): 3 (3.3) number (%) of patients
Adverse event: Rhinitis (patients with psoriasis; [5]): 0 (0.0) number (%) of patients
Adverse event: Rigors/Chills (patients with psoriasis; [5]): 1 (1.1) number (%) of patients
Adverse event: Skin peeling/Desquamation (patients with psoriasis; [5]): 1 (1.1) number (%) of patients
Adverse event: Sticky skin/Skin disorder (patients with psoriasis; [5]): 0 (0.0) number (%) of patients
Adverse event: Xerophthalmia/Eye disorder (patients with psoriasis; [5]): 1 (1.1) number (%) of patients
Adverse event: Alopecia (patients with psoriasis; [6]): 1 (0.3) number (%) of patients
Adverse event: Arthralgia (patients with psoriasis; [6]): 60 (17.2) number (%) of patients
Adverse event: Atrophy of skin (patients with psoriasis; [6]): 0 (0.0) number (%) of patients
Adverse event: Back pain (patients with psoriasis; [6]): 16 (4.6) number (%) of patients
Adverse event: Cheilitis (patients with psoriasis; [6]): 228 (65.5) number (%) of patients
Adverse event: Dry Skin (patients with psoriasis; [6]): 82 (23.6) number (%) of patients
Adverse event: Dry mouth/Oral dryness (patients with psoriasis; [6]): 11 (3.2) number (%) of patients
Adverse event: Epistaxis (patients with psoriasis; [6]): 2 (0.6) number (%) of patients
Adverse event: Erythematous rash/Erythema (patients with psoriasis; [6]): 2 (0.6) number (%) of patients
Adverse event: Hyperesthesia (patients with psoriasis; [6]): 0 (0.0) number (%) of patients
Adverse event: Nail Disorder (patients with psoriasis; [6]): 2 (0.6) number (%) of patients
Adverse event: Paresthesia (patients with psoriasis; [6]): 7 (2.0) number (%) of patients
Adverse event: Paronychia/Nail disorder (patients with psoriasis; [6]): 2 (0.6) number (%) of patients
Adverse event: Pruritus (patients with psoriasis; [6]): 21 (6.0) number (%) of patients
Adverse event: Rhinitis (patients with psoriasis; [6]): 8 (2.3) number (%) of patients
Adverse event: Rigors/Chills (patients with psoriasis; [6]): 9 (2.6) number (%) of patients
Adverse event: Skin peeling/Desquamation (patients with psoriasis; [6]): 3 (0.9) number (%) of patients
Adverse event: Sticky skin/Skin disorder (patients with psoriasis; [6]): 1 (0.3) number (%) of patients
Adverse event: Xerophthalmia/Eye disorder (patients with psoriasis; [6]): 8 (2.3) number (%) of patients
AP1 antagonism (AP1): potent
